How the values were obtained:
human V1a receptor = target: T1, human V1a receptor (Homo sapiens, UniProt P37288); assay: Cellular in vitro assay for vasopressin receptor activity (V1a, aequorin luminescence); assay type: cell-based; conditions: for IC50: CHO cell line with human V1a receptor, [Arg8]-vasopressin at EC50, values are for the prodrug as such, read-out: IC50 hV1a; for ratio IC50 hV2/hV1a: selectivity ratio hV2/hV1a
T1 construct: expressed in transfected cells; host or cells: CHO K1 (Chinese hamster ovary), also stably transfected with a modified aequorin

human V2 receptor = target: T2, human V2 receptor (Homo sapiens, UniProt P30518); assay: Cellular in vitro assay for vasopressin receptor activity (V2, CRE-luciferase); assay type: cell-based; conditions: CHO cell line with human V2 receptor, [Arg8]-vasopressin at EC50; values are for the prodrug as such; read-out: IC50 hV2
T2 construct: expressed in transfected cells; host or cells: CHO K1 cells expressing firefly luciferase under a CRE-responsive promoter
Procedure: B-1. Cellular In Vitro Assay for Determining Vasopressin Receptor Activity
The identification of agonists and antagonists of the V1a and V2 vasopressin receptors from humans, rats and dogs as well as the quantification of the activity of the compounds of the invention is carried out using recombinant cell lines. These cell lines originally derive from a hamster's ovary epithelial cell (Chinese Hamster Ovary, CHO K1, ATCC: American Type Culture Collection, Manassas, Va. 20108, USA). The test cell lines constitutively express the human, rat or dog V1a or V2 receptors. In case of the Gaq-coupled V1a receptors, cells are also stably transfected with a modified form of the calcium-sensitive photoproteins aequorin (human and rat V1a) or obelin (dog V1a), which, after reconstitution with the cofactor coelenterazine, emit light when there are increases in free calcium concentrations [Rizzuto R, Simpson A W, Brini M, Pozzan T, Nature 358, 325-327 (1992); Illarionov B A, Bondar V S, Illarionova V A, Vysotski E S, Gene 153 (2), 273-274 (1995)]. The resulting vasopressin receptor cells react to stimulation of the recombinantly expressed Via receptors by intracellular release of calcium ions, which can be quantified by the resulting photoprotein luminescence. The Gs-coupled V2 receptors are stably transfected into cell lines expressing the gene for firefly luciferase under control of a CRE-responsible promoter. Activation of V2 receptors induces the activation of the CRE-responsive promoter via cAMP increase, thereby inducing the expression of firefly luciferase. The light emitted by photoproteins of V1a cell lines as well as the light emitted by firefly luciferase of V2 cell lines corresponds to the activation or inhibition of the respective vasopressin receptor. The bioluminescence of the cell lines is detected using a suitable luminometer [Milligan G, Marshall F, Rees S, Trends in Pharmacological Sciences 17, 235-237 (1996)].
Vasopressin V2 Receptor Cell Lines:
On the day before the assay, the cells are plated out in culture medium (DMEM/F12, 2% FCS, 2 mM glutamine, 10 mM HEPES) in 384-well microtiter plates and kept in a cell incubator (96% humidity, 5% v/v CO2, 37C). On the day of the assay, test compounds in various concentrations and the agonist [Arg^8]-vasopressin at EC50 concentration are added together to the wells, and plates are incubated for 3 hours in a cell incubator. Upon addition of the cell lysis reagent Triton™ and the substrate luciferin, luminescence of firefly luciferase is measured in a luminometer.
Table 1A below lists individual IC50 values for the compounds of the invention (including racemic mixtures as well as separated enantiomers) that were obtained from cell lines transfected with the human V1a or V2 receptor. This means these IC50 values are the values for the prodrug and not for the underlying respective drug as the prodrug is mainly stable under the assay conditions.

[1] = system: vasopressin (AVP) mediated changes of systemic and renal hemodynamics; assay: Acute effects on vasopressin-mediated changes of systemic hemodynamics, renal blood flow and oxygenation in anesthetized rats; assay type: in vivo, rat; conditions: AVP 50 ng/kg/min + compound 30 μg/kg bolus, mean ± SD, n = 8
Procedure: B-11. Acute Effects on Vasopressin-Mediated Changes of Systemic Hemodynamics, Renal Blood Flow and Oxygenation in Anesthetized Rats
Experiments are performed on male Sprague Dawley rats (Charles River, Deutschland; 350-450 g body weight). In preparation for surgical procedures rats are anesthetized with isoflurane and placed on a heated table to maintain core body temperature at 37° C., assessed using a rectal thermometer inserted. Inhalation anesthesia with isoflurane is applied using a calibrated vaporizer to induce and maintain anesthesia with 5 vol. % and 2 vol. % isoflurane, respectively. A PE50 cannula is placed in the right arteria femoralis for monitoring mean arterial pressure (MAP). Another PE50 catheter is inserted into the vena femoralis for intravenous infusion. The left kidney is exposed by a flank incision and separated from the perirenal attachments. The kidney capsule remains intact. During surgery and the subsequent equilibration and control periods, the rats receive an intravenous infusion of saline (0.9% NaCl) at rate 100 μL/min. Renal measurements of renal blood flow (RBF) are recorded using a laser Doppler blood flow probe (Oxford Optronix, UK) that is attached and stabilized to the surface of the kidney. The probe is inserted into the renal cortex to a depth of 2 mm and another into the renal medulla at 4 mm. The renal blood flow, oxygen and temperature are measured by combined sensor probe (Oxford Optronix, UK). MAP, heart rate (HR), RBF, temperature and oxygen are continuously recorded. After surgery and equilibration, baseline measurements are determined for 20 minutes. The rats are then intravenously infused with vasopressin atrate 50 ng/kg/min in 100 μL/kg for 20 minutes. In the third period, the effect of combined infusion of vasopressin and adual vasopressin receptor antagonist (Example 82 of WO 2016/071212) or a selective V1a antagonist (Example 1) or vehicle that is applied as a bolus in different concentration is determined.

T1 sequence (P37288 whole entry): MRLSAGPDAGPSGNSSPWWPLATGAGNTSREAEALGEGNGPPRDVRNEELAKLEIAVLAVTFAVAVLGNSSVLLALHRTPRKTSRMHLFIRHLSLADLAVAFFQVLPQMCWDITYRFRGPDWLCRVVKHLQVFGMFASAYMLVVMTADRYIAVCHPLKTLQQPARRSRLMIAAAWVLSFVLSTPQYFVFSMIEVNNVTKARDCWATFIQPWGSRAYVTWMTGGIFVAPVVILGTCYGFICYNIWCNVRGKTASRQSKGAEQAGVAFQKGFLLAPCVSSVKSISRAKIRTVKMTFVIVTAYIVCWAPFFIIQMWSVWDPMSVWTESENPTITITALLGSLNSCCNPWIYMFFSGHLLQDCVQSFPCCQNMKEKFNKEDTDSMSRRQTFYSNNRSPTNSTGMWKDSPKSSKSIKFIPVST
T2 sequence (P30518 whole entry): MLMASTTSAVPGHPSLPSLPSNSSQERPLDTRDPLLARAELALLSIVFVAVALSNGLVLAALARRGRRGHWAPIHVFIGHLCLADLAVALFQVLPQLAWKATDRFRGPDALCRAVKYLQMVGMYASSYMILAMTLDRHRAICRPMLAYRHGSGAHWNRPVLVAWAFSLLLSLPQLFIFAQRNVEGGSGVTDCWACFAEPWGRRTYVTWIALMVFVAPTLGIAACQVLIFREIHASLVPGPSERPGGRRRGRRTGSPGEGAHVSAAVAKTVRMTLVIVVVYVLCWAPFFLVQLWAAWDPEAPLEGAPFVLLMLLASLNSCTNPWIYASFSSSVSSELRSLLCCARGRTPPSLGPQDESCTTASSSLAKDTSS

Row | Compound | IC50 (human V1a receptor) | ratio IC50 hV2/hV1a (human V1a receptor) | IC50 (human V2 receptor) | HR (heart rate) [1] | MAP (mean arterial blood pressure) [1] | RBF (renal blood flow) [1] | pO2 (partial pressure of renal oxygen) [1]
1 | NC(=O)c1nc(Cn2nc(-c3ccc(Cl)cc3)n(C[C@H](OP(=O)(O)O)C(F)(F)F)c2=O)nn1-c1ncccc1C(F)(F)F [Example 1, (2S)-3-[1-({5-Carbamoyl-1-[3-(trifluoromethyl)pyridin-2-yl]-1H-1,2,4-triazol-3-yl}methyl)-3-(4-chlorophenyl)-5-oxo-1,5-dihydro-4H-1,2,4-triazol-4-yl]-1,1,1-trifluoropropan-2-yl Dihydrogen Phosphate] | 15.7 nM | 12.3 | 193 nM | 276.20 ± 4.46 BPM | 103.50 ± 4.97 mmHg | 877.00 ± 43.01 U | 14.32 ± 1.13 mmHg
2 | NC(=O)c1nc(Cn2nc(-c3ccc(Cl)cc3)n(C[C@H](O)C(F)(F)F)c2=O)nn1-c1ncccc1C(F)(F)F [Example 4A, 3-({3-(4-Chlorophenyl)-5-oxo-4-[(2S)-3,3,3-trifluoro-2-hydroxypropyl]-4,5-dihydro-1H-1,2,4-triazol-1-yl}methyl)-1-[3-(trifluoromethyl)pyridin-2-yl]-1H-1,2,4-triazole-5-carboxamide] | – | 141.0 | – | 270.50 ± 2.89 BPM | 114.80 ± 7.42 mmHg | 878.10 ± 96.92 U | 15.86 ± 4.01 mmHg
3 | NC(=O)c1nc(Cn2nc(-c3ccc(Cl)cc3)n(C[C@H](OP(=O)(O)O)C(F)(F)F)c2=O)nn1-c1ccccc1C(F)(F)F [Example 10, (2S)-3-[1-({5-Carbamoyl-1-[2-(trifluoromethyl)phenyl]-1H-1,2,4-triazol-3-yl}methyl)-3-(4-chlorophenyl)-5-oxo-1,5-dihydro-4H-1,2,4-triazol-4-yl]-1,1,1-trifluoropropan-2-yl Dihydrogen Phosphate] | 10.6 nM | 4.4 | 47 nM | – | – | – | –
4 | NC(=O)c1nc(Cn2nc(-c3ccc(Cl)cc3)n(C[C@H](OP(=O)(O)O)C(F)(F)F)c2=O)nn1-c1ncccc1Cl [Example 17, (2S)-3-[1-{[5-Carbamoyl-1-(3-chloropyridin-2-yl)-1H-1,2,4-triazol-3-yl]methyl}-3-(4-chloro-phenyl)-5-oxo-1,5-dihydro-4H-1,2,4-triazol-4-yl]-1,1,1-trifluoropropan-2-yl Dihydrogen Phosphate] | 9.8 nM | 13.3 | 130 nM | – | – | – | –

From patent US11298367B2, “Prodrugs of substituted triazole derivatives and uses thereof” (Bayer Aktiengesellschaft, priority 2017, dated 2022)
